Experimental findings from patent US20150352075A1, “Treatment of Alzheimer's and Cognitive Impairment With Andrographolides” (INNOBIOSCIENCE, LLC, priority 2013, published 2015) are described below.

The test system of one data set is GSK-3β. The data set can be described thus: Immunoblot of GSK-3β phosphorylation state and β-catenin in Wt hippocampal slices. Type of data set: cell-based, mice. How it is done: The hippocampus and cortex of treated or control transgenic mice were dissected on ice and immediately processed has detailed previously (Toledo & Inestrosa 2010). Briefly, hippocampal and cortical tissues were homogenized in RIPA buffer (10 mM Tris-Cl, pH 7.4, EDTA 5 mM, 1% NP-40, 1% sodium deoxycholate, and 1% SDS) supplemented with a protease inhibitor mixture and phosphatase inhibitors (25 mMNaF, 100 mM Na3VO4 and 30 μM Na4P2O7) using a Potter homogenizator and then passed sequentially through different caliber syringes. Protein samples were centrifuged at 14000 rpm at 4° C. twice for 15 min Protein concentrations were determined using the BCA Protein Assay Kit (Pierce). Samples were resolved by SDS-PAGE followed by immunoblotting on PVDF membranes. Western blot assays were carried out as previously described (Inestrosa et al 2013; Toledo & Inestrosa 2010).
Hippocampal slices were prepared according to standard procedures previously described (Cerpa et al 2010; VarelaNallar et al 2010). Briefly, transverse slices (350 μm) from the dorsal hippocampus were cut under cold artificial cerebrospinal fluid (ACSF, in mM: 124 NaCl, […], 10 D-glucose, 2.69 KCl, 1.25 KH2PO4 2.5 CaCl2, 1.3 MgSO4, y 2.60 NaHPO4) using a V ibratome (Leica VT 1000s, Germany) and incubated in ACSF for 1 h at room temperature. In all experiments, 10 μM picrotoxin (PTX) was added to suppress inhibitory GABAA transmission (Cuitino et al 2010). Slices were transferred to an experimental chamber (2 ml), superfused (3 ml/min, at 20-22° C.) with gassed ACSF and visualized by trans-illumination with a binocular microscope (MSZ-10, Nikon, Melville, N.Y.). […] The paired pulse facilitation index was calculated by ((R2−R1)/R1), where R1 and R2 were the peak amplitudes of the first and second fEPSP respectively. […] Evoked postsynaptic responses were analyzed off-line, using an analysis software (pClampfit, Molecular Devices), which allowed visual detection of events, computing only those events that exceeded and arbitrary threshold.

Data set [1] concerns APPswe/PS-1 double transgenic mice. As to the kind of experiment: Thioflavine-S staining of amyloid plaques in brain of treated mice. Type of data set: in vivo.
The subject of data set [2] is CA3-CA1 connections in hippocampal slices. As to the kind of experiment: Electrophysiology (fEPSP, PPF, LTP, LTD) in Wt hippocampal slices. Type of data set: cell-based, mice. The method, then: Slices were transferred to an experimental chamber (2 ml), superfused (3 ml/min, at 20-22° C.) with gassed ACSF and visualized by trans-illumination with a binocular microscope (MSZ-10, Nikon, Melville, N.Y.). […] The stimulation was in the Stratum Radiatum within 100-200 μm from the recording site. The paired pulse facilitation index was calculated by ((R2−R1)/R1), where R1 and R2 were the peak amplitudes of the first and second fEPSP respectively. To generate LTP we used Theta Burst Stimulation (TBS) consisting of 5 trains of stimulus with an inter-train interval of 20 s. Each train consisted of 10 bursts at 5 Hz and each burst having 4 pulses at 100 Hz. To generate LTD we used Low Frequency Stimulation (LFS) consisting in 900 paired pulses at 1 Hz. Recordings were filtered at 2.0-3.0 kHz, sampled at 4.0 kHz using an A/D converter, and stored with pClamp 10 (Molecular Devices). Evoked postsynaptic responses were analyzed off-line, using an analysis software (pClampfit, Molecular Devices), which allowed visual detection of events, computing only those events that exceeded and arbitrary threshold.

Data set [3] concerns APPswe/PS-1 double transgenic mice. The data set can be described thus: Tau phosphorylation (PHF-1, AT8) by immunoblot and immunohistochemistry in treated mice. Type of data set: in vivo.
Data set [4] shares this test system. The data set can be described thus: LTP by TBS in hippocampal CA1 slices from treated transgenic mice. Format: in vivo. The conditions noted are these: slices from both sets (7- and 12-month-old) of treated APPswe/PS-1 mice.
Data set [5] can be described thus: Side effects in treated animals. The conditions noted are these: in vivo.
Another data set deals with HEK293T cells. As to the kind of experiment: TOPflash/FOPflash luciferase reporter assay. Type of data set: cell-based. How it is done:
150,000 HEK293T cells were seeded in triplicate per condition and kept for 24 hours at 37° C. with 5% CO2. The cultures were transfected with TOPflash or FOPflash (400 ng), which are firefly-luciferase reporter DNA constructs (Milipore), using LipofectAMINE 2000 (Invitrogen). To control for transfection pRL-TK (10 ng) was included in all transfections. […] Values were normalized by the renilla value from the same well. To statistically compare treatments ANOVA was used.

In data set [6] the test system is APPswe/PS-1 double transgenic mice. As to the kind of experiment: Immunoblot of synaptic proteins in hippocampus and cortex of treated mice. Format: in vivo.
[7] abbreviates: Wt hippocampal slices, 10 μM ANDRO for 1 hr (FIG. 5).
[8] abbreviates: young APPswe/PS-1 mice, vs controls.

`C=C1CC[C@@H]2C(C)(CO)C(O)CC[C@@]2(C)C1C/C=C1/C(=O)OCC1O` (stereo in doubt) [ANDRO, 3-(2-(Decahydro-6-hydroxy-5-(hydroxymethyl)-5,8a-dimethyl-2-methylenenaphthyl)ethylidene)dihydro-4-hydroxyfuran-2(3H)-one]: in the data set with GSK-3β (Wt hippocampal slices incubated with ANDRO), the “levels of β-catenin” value is “increase in the levels of β-catenin”. Also, in the data set on GSK-3β (setting [7]), the “active form of GSK-3β (Tyr-216 phosphorylation)” value is given as “reduction of the active form (Tyr-216)” and the “inactive form of GSK-3β (Ser-9 phosphorylation)” value was “increase in the levels of the inactive form of GSK-3P (Ser-9)”. Moreover, the “plaque size distribution (cumulative frequency)” value in data set [1] (7 month-old APPswe/PS-1 mice) is “shift in their distribution toward smaller plaque size”. For the same compound, in data set [1] (7 month-old APPswe/PS-1 mice, cortex and hippocampus, vs untreated), the “amyloid plaques stained with Th-S” value is on record as “reduction of amyloid plaques stained with Th-S”. Also, in data set [1] (FIG. 3F mice (printed young; legend: old, 12 month-old), hippocampus or cortex), the “amyloid deposit levels (amyloid burden area)” value is “no change in amyloid deposit levels”. In data set [1] (setting [8]), the “most immature plaques (type 1)” value is listed as “increase significantly”; the “type 2a and 2c amyloid plaques in total brain” value is on record as “no significant differences”; the “type 2b amyloid plaques in brain” value is on record as “significantly decreased”. Also, the “fEPSP amplitude (basal synaptic transmission)” value in data set [2] (ANDRO (5 μM), slices exposed for 30 min) is reported as “increased the fEPSP amplitude”. The “paired pulse facilitation (PPF) ratio” value in data set [2] (Wt hippocampal slices) is reported as “does not increase PPF ratio”. The “LTP induction or maintenance” value in data set [2] (Wt hippocampal slices, TBS, in the presence of ANDRO) was “do not observed alteration in the LTP induction or maintenance”. Also, in data set [2] (hippocampal slices, LFS), the “induction of LTD” value is “the LTD was inhibited”. Also, the “number of AT8-positive neurons next to amyloid deposits” value in data set [3] (6 month-old APPswe/PS-1, circular area surrounding plaques) is on record as “clear decrease in the number of AT8-positive neurons next to amyloid deposits”. Besides, the “total AT8-positive cells outside the circular area around the plaques” value in data set [3] (hippocampus) is reported as “decrease in the number of these cells”. Also, in data set [3] (hippocampus of 6 month-old APPswe/PS-1 mice, vs untreated), the “PHF-1- and AT8-positive tau levels (immunoblot)” value was “reduction in PHF-1- and AT8-positive tau levels”. Besides, the “LTP induction in CA3-CA1 transmission” value in data set [4] was “have the property to induce a LTP that is maintained for 1 h”. The “side effects in animals” value in data set [5] was “seems not to cause side effects in animals”. Besides, in the data set on HEK293T cells (10 μM, 24 h), the FOPflash reporter activity entry is reported as “not in the FOPflash” and the TOPflash reporter activity result is recorded as “significant increase in the TOPflash”. Further, in the data set on HEK293T cells (HEK293T, TOPflash), the “increase of luciferase reporter over control” value turned out to be 4 fold. For the same compound, in data set [6] (mature Tg mice), the “PSD-95 and GluA2 levels” value was “increase of PSD-95 and GluA2 levels”. For the same compound, the “total levels of pre-synaptic proteins SYP and VAMP” value in data set [6] (young APPswe/PS-1 mice) is recorded as “unaltered”. Also, in data set [6] (young APPswe/PS-1 mice, hippocampus and cortex), the “levels of post-synaptic proteins (Shank, GluN2B, GluA2, PSD-95)” value was “significantly recovers the post-synaptic proteins”.
